Experimental data taken from publication PMC8280143, “A novel dephosphorylation targeting chimera selectively promoting tau removal in tauopathies” (Signal Transduction and Targeted Therapy, 2021).
Entries after “also recorded” stand apart in the source; their conditions may differ.

Key:
[1] = system: brain-blood barrier (BBB); assay: Brain-blood barrier penetration after tail vein delivery; format: in vivo; settings: delivered through mouse tail vein; 10 mM; 2-month male C57BL/6 mice
Protocol: (§1) For 2-month male C57BL/6 mice, 10 mM FITC-labeled or unlabeled-DEPTAC were directly injected through the tail vein or lateral ventricle for the evaluation of BBB-penetrability. For 9-month 3×Tg AD mice or Tau368 (20–30 g body weight), unlabeled-DEPTAC (5 mM, 1 μL for each time) was delivered for once into the lateral ventricle through direct stereotaxic injection, or repeatedly administrated through guiding cannulas (RWD, Shenzhen, China) implanted into the lateral ventricle once every 3 days for a consecutive month to test its dephosphorylation efficiency. Mice were restricted in a custom designed device and stayed awake during drug administration, and sacrificed at 24 h post the single or last DEPTAC administration.

tau = assay: Hippocampal phospho-tau and total tau in 3×Tg AD mice; format: in vivo, mouse; settings: 9-month 3×Tg AD mice, 5 mM, 1 μL
Protocol: Mice weighting 20–30 g were anesthetized with 1% pentobarbital sodium (35 mg/kg), and fixed in a stereotaxic instrument (RWD). The scalp was sterilized with iodophors and 75% ethanol, and incised along the skull midline. Holes were drilled. Adeno-associated virus or DEPTAC was injected into the dorsal DG (posterior 1.9 mm, lateral ±1.1 mm from the bregma, ventral −2.0 from the skull) or lateral ventricle (posterior 0.22 mm, lateral ±1.0 mm from the bregma, ventral −2.5 from the skull), respectively, using an automatic microinjection system (World Precision Instruments, USA) at a rate of 0.05 μL/min. The needle syringe was left in place for 5 min before withdrawal. The skin was sutured and sterilized with iodophors. Mice were placed on thermos tank for analepsia.
as §1
Cultured cells or hippocampus tissues were collected on ice, and homogenized with RIPA lysis buffer containing 50 mM Tris-HCl, 100 mM NaCl, 1% Triton X-100, 5 mM EDTA, and 1:100 PMSF, and then centrifuged at 12,000 × g for 20 min. The supernatant was collected for the analysis of soluble proteins. In some experiments, the pellets were further incubated with 8% SDS buffer at 37 °C and then ultrasound for 60 times to reach a complete resuspension for the analysis of insoluble tau. Protein concentration was measured through BCA assays (Thermo Fisher). Equal amount of protein from each sample were separated in SDS-PAGE gels, and then transferred onto nitrocellulose or 0.22 μm polyvinylidene fluoride membranes (Merck Millipore). […] Blots were visualized using ECL luminol reagent (P0018FS, Beyotime), and quantified using ImageJ software.

tau aggregation = assay: Thioflavin T staining of tau aggregation in the DG of Tau368 mice; format: in vivo, mouse; settings: DEPTAC for a consecutive month after stopping dox; **p < 0.01, n = 4–5 mice
Protocol: as §1
Free-floating brain sections were washed with Tris-buffered saline (TBS) for 3 × 5 min, and then incubated with 0.3% Thioflavin T (Sigma) dissolved in 50% ethanol at room temperature for 10 min. The sections were then decolorized in 50% ethanol for 3 × 5 min, washed in TBS, and subsequently co-stained with DAPI for 10 min.

Tau368 mice [2] = assay: Object-place recognition test; format: in vivo, mouse
Protocol: Mice were repeatedly handled during DEPTAC administration before behavioral tests. For object-place recognition in the […], mice were placed in a box (50 × 50 × 50 cm) marked with a visual cue on the wall, and two identical objects (plastic toys) were placed at the two different corners. Each mouse was allowed to freely explore for 5 min, and then removed from the box for 2 min, during which the box and the objects were cleaned with 75% ethanol. Pseudorandomly, one of the two objects (object B) was moved to a new corner while the other object (object A) remained unmoved. In the test phase, mice were allowed to freely explore in the box for another 5 min. Videos were recorded and analyzed online using an ANY-maze video tracking system (Stoelting). The time mice stayed around each object was counted as exploring; and the preference ratio was calculated as the exploring time (B − A) / (B + A).

Tau368 mice [3] = assay: Novel-object recognition test; format: in vivo, mouse
Protocol: Novel-object recognition tests were performed one day after the object-place recognition. A similar protocol was used except that object B was replaced by a novel object (object C) in the test phase, and mice preference for the novel object was measured.

Tau368 mice [4] = assay: Morris water maze test; format: in vivo, mouse
Description: Morris water maze tests began 3 days after the novel-object recognition tests. Briefly, mice were trained to find a hidden platform submerged under water in a Morris water maze (1.2 m in diameter) for five consecutive days with three trials per day. Visual cues outside the pool remained constant. In each trial, mice were pseudorandomly placed, facing the pool wall, in one of the three quadrants without platform and allowed to freely seek the hidden platform within 60 s. […] The traveling path of each mouse was recorded and analyzed online using an MWZ-100 video-tracking system (Techman, China). At day 6, each mouse was tested for 60 s in the water maze with the hidden platform removed. Videos were recorded using recorded and time of mice stayed in, and number of entries into the target quadrant previously place the platform were analyzed using MWZ-100 and ANY-maze video tracking system (Stoelting).

[5] = intracerebroventricular, once every 3 days for a consecutive month, *p < 0.05, n = 4
[6] = dox-treated Tau368 mice, 1-month DEPTAC after stopping dox, *p < 0.05, n = 10–15 mice
[7] = dox-treated Tau368 mice, day 6, platform removed, *p < 0.05

Question: Which results are given for “(1) YQQYQDATADEQG, originates from the porcine β-tubulin 422–434 for recognizing and binding tau proteins.[5],[6] (2) GSGS, a linker for increasing the flexibility of the peptide.[15] (3) KKVAVVRTPPKSP, for recruiting PP2A-Bα,[16] and (4) RRRRRRRR [DEPTAC, DEPhosphorylation TArgeting Chimera; 38 amino acid residues, C185H314N72O56]”?
Answer: brain-blood barrier (BBB) penetrating efficiency [1]: limited; hippocampal phospho-tau, repeated delivery (tau; [5]): significantly reduced; hippocampal total tau, repeated delivery (tau; [5]): significantly reduced; hippocampal phospho-tau, delivered for once (tau; once, n = 4): tended to decrease; also recorded: relatively limited; hippocampal total tau, delivered for once (tau; once, n = 4): tended to decrease; also recorded: relatively limited; thioflavin T (ThT)-stained tau aggregation in the DG (tau aggregation): ameliorated; object-place recognition in control mice (Tau368 mice [2]; Tau368 mice treated with NW): only limitedly affected; object-place recognition impairment (Tau368 mice [2]; [6]): remarkably ameliorated; also recorded: rescued; novel-object recognition in control mice (Tau368 mice [3]; Tau368 mice treated with NW): only limitedly affected; novel-object recognition impairment (Tau368 mice [3]; [6]): remarkably ameliorated; also recorded: rescued; spatial learning and memory in control mice (Tau368 mice [4]; control mice without human tau accumulation (NW)): only limitedly affected; also recorded: did not statistically change; spatial learning deficit in Morris water maze (Tau368 mice [4]; dox-treated Tau368 mice, **p < 0.01, *p < 0.05): rescued; also recorded: significantly alleviated; spatial memory impairment in Morris water maze (Tau368 mice [4]; dox-treated Tau368 mice, day 6, platform removed): rescued; also recorded: attenuated; number of entries into the target quadrant (Tau368 mice [4]; [7]): increased; time staying in the target quadrant (Tau368 mice [4]; [7]): increased
